Patent US20240109836A1, “NON-HALL[…] ANALOGS FOR TREATMENT OF NEUROLOGICAL AND PSYCHIATRIC DISORDERS” (The Trustees of Columbia University in the City of New York, priority 2021, published 2024)

Assays:
COX-2 = target: T1, COX-2 (Homo sapiens, UniProt P35354); assay: SafetyScreen44 (Panlabs) panel; assay type: biochemical; conditions: 10 μM
T1 construct: Panlabs (SafetyScreen44 panel)
Procedure: (§1) Other targets included with less than ≥50% stimulation at a concentration of 10 μM: Acetylcholinesterase, COX-1, COX-2, MAO-A, PDE3A, PDE4D2, Protein Tyrosine Kinase (LCK), Adenosine A2A, Adrenergic α1A, Adrenergic α2A, Adrenergic β1, Adrenergic β2, Androgen (Testosterone), Calcium Channel L-Type (Dihydropyridine), CB1, CB2, Cholecystokinin CCK1 (CCKA), Dopamine D1, Dopamine D2S, Endothelin ETA, GABAA (Flunitrazepam, Central), Glucocorticoid, Glutamate-NMDA (Agonism), Histamine H1, Histamine H2, Muscarinic M1, Muscarinic M2, Muscarinic M3, Nicotinic Acetylcholine α4β2, (Cytisine), DOP, KOP, MOP, Potassium Channel [KA], Potassium Channel hERG, Serotonin (5-Hydroxytryptamine) 5-HT1A, 5-HT1B, 5-HT3, Na-channel site 2, DAT, NET, SERT, Vasopressin V1A

PDE3A = target: T2, PDE3A (Homo sapiens, UniProt Q14432); assay: SafetyScreen44 (Panlabs) panel; assay type: biochemical; conditions: 10 μM
T2 construct: Panlabs (SafetyScreen44 panel)
Procedure: as §1

MAO-A = target: T3, MAO-A (Homo sapiens, UniProt P21397); assay: SafetyScreen44 (Panlabs) panel; assay type: biochemical; conditions: 10 μM
T3 construct: Panlabs (SafetyScreen44 panel)
Procedure: as §1

[1] = target: T4, Protein Tyrosine Kinase (LCK) (Homo sapiens, UniProt P06239); assay: SafetyScreen44 (Panlabs) panel; assay type: biochemical; conditions: 10 μM
T4 construct: Panlabs (SafetyScreen44 panel)
Procedure: as §1

PDE4D2 = target: T5, PDE4D2 (Homo sapiens, UniProt Q08499); assay: SafetyScreen44 (Panlabs) panel; assay type: biochemical; conditions: 10 μM
T5 construct: Panlabs (SafetyScreen44 panel)
Procedure: as §1

COX-1 = target: T6, COX-1 (Homo sapiens, UniProt P23219); assay: SafetyScreen44 (Panlabs) panel; assay type: biochemical; conditions: 10 μM
T6 construct: Panlabs (SafetyScreen44 panel)
Procedure: as §1

Acetylcholinesterase = target: T7, Acetylcholinesterase (Homo sapiens, UniProt P22303); assay: SafetyScreen44 (Panlabs) panel; assay type: biochemical; conditions: 10 μM
T7 construct: Panlabs (SafetyScreen44 panel)
Procedure: as §1

[2] = at therapeutically effective doses in animals and humans; cited from earlier work
[3] = target: T8, Serotonin (5-Hydroxytryptamine) 5-HT2A (Homo sapiens, UniProt P28223); assay: SafetyScreen44 (Panlabs) panel, replacement of standard ligand; assay type: binding; conditions: hum
T8 construct: Panlabs (SafetyScreen44 panel)

Forced swim test = assay type: in vivo, Mice (C57bl/6J); conditions: mice, 10 mg/kg s.c., 15 minutes post injection
Procedure: FIG. 1. […] N=5 mice (saline), N=10 (imipramine as a positive control), N=9 mice (Ariadne cohort). Y-axis show the immobility time per each testing session. Drugs were administered subcutaneously (s.c.).
Mice (C57bl/6J, 8-15 weeks, 29-35 g) were weighed and moved to the testing room 30 minutes prior to experimentation. Mice were administered 0.85% saline (s.c., 5 mice), imipramine 15 mg/kg (i.p., 10 mice), or Ariadne (32) 10 mg/kg (s.c., 9 mice). 15 minutes post injection the mice were moved to a forced swim cylinder with water kept at 23.8-25.0 degrees celsius. Mice were allowed to swim for 6 minutes after which they were removed, dried, and returned to their home cage. The last four minutes of the forced swim video footage was analyzed with Noldus FST scoring software. The mouse's view of the FST cylinder was obstructed prior to starting the forced swim test.

5-HT2A = 5-HT2A (Homo sapiens, UniProt P28223); assay: IP1 agonist functional assay; assay type: cell-based; conditions: 5HT2A versus 5HT2B, relative agonism potencies
[4] = Head twitch response assay; assay type: in vivo, Mice (C57bl/6J); conditions: mice, 1, 3, 10, and 30 mg/kg s.c., vs positive control DOI
Procedure: FIG. 2. […] N=5 mice in each cohort. […] Drugs were administered s.c.
Mice (C57bl/6J, 8-15 weeks, 26-33 g) were weighed and moved to the testing room 30 minutes prior to experimentation. Mice were administered the experimental compound at a selected dose s.c. and then immediately moved to a new cage. Before beginning the test, mice were allowed to remain in this cage for a set amount of time ranging 0-10 min based on the compound. The head twitch assay was performed by a trained observer watching the mouse for a 10 min duration and recording the total number of head twitches observed.
DOI was tested at the doses of 1, 3, 10 and 30 mg/kg (s.c., 5 mice per dose) and testing began immediately after administration of the compound. Ariadne (32), (29) and (38) were tested at the doses of 1, 3, 10, and 30 mg/kg (s.c., 5 mice per dose) and there was a 10 min interval between treatment and testing.

5-HT2B = 5-HT2B (Homo sapiens, UniProt P41595); assay: IP1 agonist functional assay; assay type: cell-based
Adrenergic α2A = target: T9, Adrenergic α2A (Homo sapiens, UniProt P08913); assay: SafetyScreen44 (Panlabs) panel; assay type: binding; conditions: 10 μM
T9 construct: Panlabs (SafetyScreen44 panel)
Procedure: as §1

5-HT3 = target: T10, 5-HT3 (Homo sapiens, UniProt P46098); assay: SafetyScreen44 (Panlabs) panel; assay type: binding; conditions: 10 μM
T10 construct: Panlabs (SafetyScreen44 panel)
Procedure: as §1

Potassium Channel hERG = target: T11, Potassium Channel hERG (Homo sapiens, UniProt Q12809); assay: SafetyScreen44 (Panlabs) panel; assay type: binding; conditions: 10 μM
T11 construct: Panlabs (SafetyScreen44 panel)
Procedure: as §1

5-HT1B = assay: SafetyScreen44 (Panlabs) panel; assay type: binding; conditions: 10 μM
Procedure: as §1

Adenosine A2A = target: T12, Adenosine A2A (Homo sapiens, UniProt P29274); assay: SafetyScreen44 (Panlabs) panel; assay type: binding; conditions: 10 μM
T12 construct: Panlabs (SafetyScreen44 panel)
Procedure: as §1

MOP = target: T13, MOP (Homo sapiens, UniProt P35372); assay: SafetyScreen44 (Panlabs) panel; assay type: binding; conditions: 10 μM
T13 construct: Panlabs (SafetyScreen44 panel)
Procedure: as §1

Muscarinic M2 = target: T14, Muscarinic M2 (Homo sapiens, UniProt P08172); assay: SafetyScreen44 (Panlabs) panel; assay type: binding; conditions: 10 μM
T14 construct: Panlabs (SafetyScreen44 panel)
Procedure: as §1

Potassium Channel [KA] = assay: SafetyScreen44 (Panlabs) panel; assay type: binding; conditions: 10 μM
Procedure: as §1

Glutamate-NMDA (Agonism) = assay: SafetyScreen44 (Panlabs) panel; assay type: binding; conditions: 10 μM
Procedure: as §1

[5] = target: T15, Serotonin (5-Hydroxytryptamine) 5-HT1A (Homo sapiens, UniProt P08908); assay: SafetyScreen44 (Panlabs) panel; assay type: binding; conditions: 10 μM
T15 construct: Panlabs (SafetyScreen44 panel)
Procedure: as §1

Glucocorticoid = target: T16, Glucocorticoid (Homo sapiens, UniProt P04150); assay: SafetyScreen44 (Panlabs) panel; assay type: binding; conditions: 10 μM
T16 construct: Panlabs (SafetyScreen44 panel)
Procedure: as §1

Adrenergic α1A = target: T17, Adrenergic α1A (Rattus norvegicus, UniProt P43140); assay: SafetyScreen44 (Panlabs) panel; assay type: binding; conditions: 10 μM
T17 construct: Panlabs (SafetyScreen44 panel)
Procedure: as §1

[6] = tested on: GABAA (Flunitrazepam, Central); assay: SafetyScreen44 (Panlabs) panel; assay type: binding; conditions: 10 μM
Procedure: as §1

CB1 = target: T18, CB1 (Homo sapiens, UniProt P21554); assay: SafetyScreen44 (Panlabs) panel; assay type: binding; conditions: 10 μM
T18 construct: Panlabs (SafetyScreen44 panel)
Procedure: as §1

Adrenergic β2 = target: T19, Adrenergic β2 (Homo sapiens, UniProt P07550); assay: SafetyScreen44 (Panlabs) panel; assay type: binding; conditions: 10 μM
T19 construct: Panlabs (SafetyScreen44 panel)
Procedure: as §1

Vasopressin V1A = target: T20, Vasopressin V1A (Homo sapiens, UniProt P37288); assay: SafetyScreen44 (Panlabs) panel; assay type: binding; conditions: 10 μM
T20 construct: Panlabs (SafetyScreen44 panel)
Procedure: as §1

[7] = target: T21, Nicotinic Acetylcholine α4β2, (Cytisine) (Homo sapiens, UniProt P17787+P43681); assay: SafetyScreen44 (Panlabs) panel; assay type: binding; conditions: 10 μM
T21 construct: Panlabs (SafetyScreen44 panel)
Procedure: as §1

Dopamine D1 = target: T22, Dopamine D1 (Homo sapiens, UniProt P21728); assay: SafetyScreen44 (Panlabs) panel; assay type: binding; conditions: 10 μM
T22 construct: Panlabs (SafetyScreen44 panel)
Procedure: as §1

DOP = target: T23, DOP (Homo sapiens, UniProt P41143); assay: SafetyScreen44 (Panlabs) panel; assay type: binding; conditions: 10 μM
T23 construct: Panlabs (SafetyScreen44 panel)
Procedure: as §1

Histamine H1 = target: T24, Histamine H1 (Homo sapiens, UniProt P35367); assay: SafetyScreen44 (Panlabs) panel; assay type: binding; conditions: 10 μM
T24 construct: Panlabs (SafetyScreen44 panel)
Procedure: as §1

SERT = target: T25, SERT (Homo sapiens, UniProt P31645); assay: SafetyScreen44 (Panlabs) panel; assay type: binding; conditions: 10 μM
T25 construct: Panlabs (SafetyScreen44 panel)
Procedure: as §1

NET = target: T26, NET (Homo sapiens, UniProt P23975); assay: SafetyScreen44 (Panlabs) panel; assay type: binding; conditions: 10 μM
T26 construct: Panlabs (SafetyScreen44 panel)
Procedure: as §1

Muscarinic M3 = target: T27, Muscarinic M3 (Homo sapiens, UniProt P20309); assay: SafetyScreen44 (Panlabs) panel; assay type: binding; conditions: 10 μM
T27 construct: Panlabs (SafetyScreen44 panel)
Procedure: as §1

Androgen (Testosterone) = assay: SafetyScreen44 (Panlabs) panel; assay type: binding; conditions: 10 μM
Procedure: as §1

Muscarinic M1 = target: T28, Muscarinic M1 (Homo sapiens, UniProt P11229); assay: SafetyScreen44 (Panlabs) panel; assay type: binding; conditions: 10 μM
T28 construct: Panlabs (SafetyScreen44 panel)
Procedure: as §1

DAT = target: T29, DAT (Homo sapiens, UniProt Q01959); assay: SafetyScreen44 (Panlabs) panel; assay type: binding; conditions: 10 μM
T29 construct: Panlabs (SafetyScreen44 panel)
Procedure: as §1

CB2 = target: T30, CB2 (Homo sapiens, UniProt P34972); assay: SafetyScreen44 (Panlabs) panel; assay type: binding; conditions: 10 μM
T30 construct: Panlabs (SafetyScreen44 panel)
Procedure: as §1

Histamine H2 = target: T31, Histamine H2 (Homo sapiens, UniProt P25021); assay: SafetyScreen44 (Panlabs) panel; assay type: binding; conditions: 10 μM
T31 construct: Panlabs (SafetyScreen44 panel)
Procedure: as §1

Adrenergic β1 = target: T32, Adrenergic β1 (Homo sapiens, UniProt P08588); assay: SafetyScreen44 (Panlabs) panel; assay type: binding; conditions: 10 μM
T32 construct: Panlabs (SafetyScreen44 panel)
Procedure: as §1

[8] = tested on: Calcium Channel L-Type (Dihydropyridine); assay: SafetyScreen44 (Panlabs) panel; assay type: binding; conditions: 10 μM
Procedure: as §1

[9] = target: T33, Cholecystokinin CCK1 (CCKA) (Homo sapiens, UniProt P32238); assay: SafetyScreen44 (Panlabs) panel; assay type: binding; conditions: 10 μM
T33 construct: Panlabs (SafetyScreen44 panel)
Procedure: as §1

Endothelin ETA = target: T34, Endothelin ETA (Homo sapiens, UniProt P25101); assay: SafetyScreen44 (Panlabs) panel; assay type: binding; conditions: 10 μM
T34 construct: Panlabs (SafetyScreen44 panel)
Procedure: as §1

Na-channel site 2 = assay: SafetyScreen44 (Panlabs) panel; assay type: binding; conditions: 10 μM
Procedure: as §1

KOP = target: T35, KOP (Homo sapiens, UniProt P41145); assay: SafetyScreen44 (Panlabs) panel; assay type: binding; conditions: 10 μM
T35 construct: Panlabs (SafetyScreen44 panel)
Procedure: as §1

Dopamine D2S = target: T36, Dopamine D2S (Homo sapiens, UniProt P14416); assay: SafetyScreen44 (Panlabs) panel; assay type: binding; conditions: 10 μM
T36 construct: Panlabs (SafetyScreen44 panel)
Procedure: as §1

[10] = target: T37, Serotonin (5-Hydroxytryptamine) 5-HT2B (Homo sapiens, UniProt P41595); assay: SafetyScreen44 (Panlabs) panel, replacement of standard ligand; assay type: binding; conditions: hum
T37 construct: Panlabs (SafetyScreen44 panel)

T9 sequence (P08913 whole entry): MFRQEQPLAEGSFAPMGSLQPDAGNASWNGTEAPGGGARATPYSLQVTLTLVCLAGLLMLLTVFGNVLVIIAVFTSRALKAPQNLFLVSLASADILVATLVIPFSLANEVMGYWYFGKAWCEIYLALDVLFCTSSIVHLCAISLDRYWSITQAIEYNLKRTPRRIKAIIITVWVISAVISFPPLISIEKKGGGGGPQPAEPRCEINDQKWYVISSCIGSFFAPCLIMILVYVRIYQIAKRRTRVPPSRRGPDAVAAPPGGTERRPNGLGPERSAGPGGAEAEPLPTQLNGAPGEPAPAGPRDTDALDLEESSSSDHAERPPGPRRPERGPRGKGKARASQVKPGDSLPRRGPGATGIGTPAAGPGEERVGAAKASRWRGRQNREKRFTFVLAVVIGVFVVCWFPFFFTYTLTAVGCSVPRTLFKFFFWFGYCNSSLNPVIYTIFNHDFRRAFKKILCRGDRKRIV
T8 sequence (P28223 whole entry): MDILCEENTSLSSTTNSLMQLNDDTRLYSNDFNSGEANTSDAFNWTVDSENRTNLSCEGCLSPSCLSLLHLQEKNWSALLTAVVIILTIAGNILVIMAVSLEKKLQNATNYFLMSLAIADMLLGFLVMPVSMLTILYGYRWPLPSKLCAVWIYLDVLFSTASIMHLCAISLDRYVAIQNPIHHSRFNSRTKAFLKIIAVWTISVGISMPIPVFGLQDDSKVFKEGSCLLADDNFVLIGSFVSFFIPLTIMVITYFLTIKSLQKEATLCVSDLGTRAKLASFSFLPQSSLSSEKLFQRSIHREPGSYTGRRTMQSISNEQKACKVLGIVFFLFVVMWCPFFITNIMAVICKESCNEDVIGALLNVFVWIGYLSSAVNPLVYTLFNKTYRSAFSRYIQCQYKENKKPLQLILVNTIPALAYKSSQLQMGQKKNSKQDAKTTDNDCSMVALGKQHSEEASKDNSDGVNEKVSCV
Sequence of 5-HT2A (P28223 whole entry): as above
T15 sequence (P08908 whole entry): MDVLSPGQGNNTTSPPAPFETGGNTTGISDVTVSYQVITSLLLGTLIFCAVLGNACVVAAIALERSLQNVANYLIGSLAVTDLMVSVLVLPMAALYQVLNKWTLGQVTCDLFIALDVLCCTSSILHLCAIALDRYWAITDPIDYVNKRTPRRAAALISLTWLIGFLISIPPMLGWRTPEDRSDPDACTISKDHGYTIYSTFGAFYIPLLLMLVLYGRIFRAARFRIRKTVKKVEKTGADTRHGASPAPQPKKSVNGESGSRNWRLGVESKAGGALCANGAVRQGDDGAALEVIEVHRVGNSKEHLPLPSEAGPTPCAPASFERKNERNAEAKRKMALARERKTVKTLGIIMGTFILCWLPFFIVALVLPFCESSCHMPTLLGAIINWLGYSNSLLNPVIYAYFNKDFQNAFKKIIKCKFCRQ
T19 sequence (P07550 whole entry): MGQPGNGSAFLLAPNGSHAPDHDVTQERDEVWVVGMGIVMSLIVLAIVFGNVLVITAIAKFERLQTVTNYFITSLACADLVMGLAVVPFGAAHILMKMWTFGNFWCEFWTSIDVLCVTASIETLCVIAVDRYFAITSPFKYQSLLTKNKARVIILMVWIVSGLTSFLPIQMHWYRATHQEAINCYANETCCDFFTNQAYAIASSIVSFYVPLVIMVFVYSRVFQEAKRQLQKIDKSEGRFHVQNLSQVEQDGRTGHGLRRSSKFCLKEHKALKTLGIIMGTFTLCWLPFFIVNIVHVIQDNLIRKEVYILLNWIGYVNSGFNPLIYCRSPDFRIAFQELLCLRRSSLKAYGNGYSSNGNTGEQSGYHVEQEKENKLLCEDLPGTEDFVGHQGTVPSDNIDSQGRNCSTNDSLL
T31 sequence (P25021 whole entry): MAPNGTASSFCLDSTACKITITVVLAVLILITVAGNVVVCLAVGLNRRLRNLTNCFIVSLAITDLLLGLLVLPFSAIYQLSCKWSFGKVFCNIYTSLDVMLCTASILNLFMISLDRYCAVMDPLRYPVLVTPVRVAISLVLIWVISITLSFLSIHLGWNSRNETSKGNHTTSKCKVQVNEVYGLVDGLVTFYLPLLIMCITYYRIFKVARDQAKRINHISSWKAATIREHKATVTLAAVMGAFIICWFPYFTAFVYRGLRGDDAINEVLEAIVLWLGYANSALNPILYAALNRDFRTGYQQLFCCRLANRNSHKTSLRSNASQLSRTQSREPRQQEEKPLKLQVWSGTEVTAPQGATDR
T18 sequence (P21554 whole entry): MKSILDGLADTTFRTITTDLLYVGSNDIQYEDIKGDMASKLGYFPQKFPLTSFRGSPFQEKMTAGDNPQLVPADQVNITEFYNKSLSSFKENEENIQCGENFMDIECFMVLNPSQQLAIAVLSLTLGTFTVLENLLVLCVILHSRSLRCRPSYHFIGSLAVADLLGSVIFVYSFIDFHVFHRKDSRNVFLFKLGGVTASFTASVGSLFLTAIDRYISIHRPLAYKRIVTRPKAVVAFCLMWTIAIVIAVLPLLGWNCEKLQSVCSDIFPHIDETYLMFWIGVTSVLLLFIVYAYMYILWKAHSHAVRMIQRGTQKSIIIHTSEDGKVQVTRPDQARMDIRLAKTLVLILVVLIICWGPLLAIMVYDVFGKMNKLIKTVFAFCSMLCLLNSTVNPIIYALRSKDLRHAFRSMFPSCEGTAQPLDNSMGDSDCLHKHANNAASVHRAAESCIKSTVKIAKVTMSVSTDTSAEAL
T25 sequence (P31645 whole entry, species assumed): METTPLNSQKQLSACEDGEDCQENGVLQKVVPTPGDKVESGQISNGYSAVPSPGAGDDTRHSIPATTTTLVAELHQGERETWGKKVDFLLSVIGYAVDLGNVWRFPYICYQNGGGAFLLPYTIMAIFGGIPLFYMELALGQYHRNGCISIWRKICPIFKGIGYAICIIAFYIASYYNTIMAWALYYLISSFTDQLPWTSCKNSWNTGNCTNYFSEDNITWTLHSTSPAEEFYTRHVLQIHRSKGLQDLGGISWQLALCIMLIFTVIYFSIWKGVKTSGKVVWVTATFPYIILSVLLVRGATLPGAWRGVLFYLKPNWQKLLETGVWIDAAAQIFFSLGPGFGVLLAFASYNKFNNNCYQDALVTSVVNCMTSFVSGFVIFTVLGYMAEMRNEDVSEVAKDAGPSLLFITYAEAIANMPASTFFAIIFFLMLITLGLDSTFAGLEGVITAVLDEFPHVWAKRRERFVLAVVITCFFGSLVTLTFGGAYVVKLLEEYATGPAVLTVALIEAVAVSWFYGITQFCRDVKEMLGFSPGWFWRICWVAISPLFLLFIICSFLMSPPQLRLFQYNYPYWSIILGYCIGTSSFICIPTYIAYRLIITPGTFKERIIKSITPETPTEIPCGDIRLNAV
T23 sequence (P41143 whole entry): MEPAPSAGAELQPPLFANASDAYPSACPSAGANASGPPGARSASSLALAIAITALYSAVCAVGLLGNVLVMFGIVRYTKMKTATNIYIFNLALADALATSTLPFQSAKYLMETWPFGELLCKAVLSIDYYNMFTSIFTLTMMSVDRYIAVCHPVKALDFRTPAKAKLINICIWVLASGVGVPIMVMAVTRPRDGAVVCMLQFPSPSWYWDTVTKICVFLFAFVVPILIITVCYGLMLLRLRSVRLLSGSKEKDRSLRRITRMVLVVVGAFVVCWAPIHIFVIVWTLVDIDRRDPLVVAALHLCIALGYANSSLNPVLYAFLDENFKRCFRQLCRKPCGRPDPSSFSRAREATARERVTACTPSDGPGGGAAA
T35 sequence (P41145 whole entry): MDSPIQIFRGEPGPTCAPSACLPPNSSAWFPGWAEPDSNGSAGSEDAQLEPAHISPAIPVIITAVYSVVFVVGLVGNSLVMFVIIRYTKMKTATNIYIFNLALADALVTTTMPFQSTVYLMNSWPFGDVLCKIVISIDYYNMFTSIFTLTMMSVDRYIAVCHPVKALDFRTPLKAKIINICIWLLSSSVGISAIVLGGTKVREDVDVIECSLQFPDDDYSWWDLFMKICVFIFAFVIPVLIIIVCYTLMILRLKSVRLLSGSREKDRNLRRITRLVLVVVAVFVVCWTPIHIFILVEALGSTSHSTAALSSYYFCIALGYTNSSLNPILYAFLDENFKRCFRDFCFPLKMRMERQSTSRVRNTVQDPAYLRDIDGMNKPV
T14 sequence (P08172 whole entry): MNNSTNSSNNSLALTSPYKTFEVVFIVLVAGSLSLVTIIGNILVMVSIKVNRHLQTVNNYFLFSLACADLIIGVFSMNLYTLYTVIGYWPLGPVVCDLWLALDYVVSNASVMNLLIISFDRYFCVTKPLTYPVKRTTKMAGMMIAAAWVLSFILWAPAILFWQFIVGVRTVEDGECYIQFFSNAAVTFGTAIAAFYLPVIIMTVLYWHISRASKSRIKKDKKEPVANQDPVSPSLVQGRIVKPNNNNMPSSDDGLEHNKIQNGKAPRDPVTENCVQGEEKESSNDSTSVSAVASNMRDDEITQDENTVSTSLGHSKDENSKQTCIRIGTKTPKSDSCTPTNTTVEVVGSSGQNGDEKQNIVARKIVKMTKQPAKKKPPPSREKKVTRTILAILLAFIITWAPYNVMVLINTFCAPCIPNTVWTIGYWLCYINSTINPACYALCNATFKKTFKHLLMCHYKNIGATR

CCC(N)Cc1cc(OC)c(C)cc1OC (stereo not shown) [Ariadne (32), 1-(2,5-dimethoxy-4-methylphenyl)butan-2-amine]
lower psychedelic activity: psychedelic activity (number of head twitches in a 10-min period) [4]
25x: Selectivity (EC50 2B ÷ EC50 2A) (5-HT2A)
72%: inhibition at 10 µM [3] | inhibition at 10 µM [10]
no hallucinogenic effect: hallucinogenic effect [2]
antidepressant-like effects: antidepressant-like effects (immobility time) (Forced swim test)
> 32 µM: EC50 (5-HT2B)
< 50%: % stimulation (COX-2) | % stimulation (PDE3A) | % stimulation (MAO-A) | % stimulation [1] | % stimulation (PDE4D2) | % stimulation (COX-1) | % stimulation (Acetylcholinesterase) | % stimulation (Adrenergic α2A) | % stimulation (5-HT3) | % stimulation (Potassium Channel hERG) | % stimulation (5-HT1B) | % stimulation (Adenosine A2A) | % stimulation (MOP) | % stimulation (Muscarinic M2) | % stimulation (Potassium Channel [KA]) | % stimulation (Glutamate-NMDA (Agonism)) | % stimulation [5] | % stimulation (Glucocorticoid) | % stimulation (Adrenergic α1A) | % stimulation [6] | % stimulation (CB1) | % stimulation (Adrenergic β2) | % stimulation (Vasopressin V1A) | % stimulation [7] | % stimulation (Dopamine D1) | % stimulation (DOP) | % stimulation (Histamine H1) | % stimulation (SERT) | % stimulation (NET) | % stimulation (Muscarinic M3) | % stimulation (Androgen (Testosterone)) | % stimulation (Muscarinic M1) | % stimulation (DAT) | % stimulation (CB2) | % stimulation (Histamine H2) | % stimulation (Adrenergic β1) | % stimulation [8] | % stimulation [9] | % stimulation (Endothelin ETA) | % stimulation (Na-channel site 2) | % stimulation (KOP) | % stimulation (Dopamine D2S)
